Laboratory results as given in US9326513B2, “Fungicidal compositions” (Syngenta Participations AG, priority 2011, dated 2016).
Where “and” joins values, the source holds several entries; their conditions need not be identical. Equal values may be shown once. Read-outs that look alike come from different tables or passages of the source.

Key:
[1] = test system: Monographella nivalis (syn. Microdochium nivale, Fusarium nivale); assay: Monographella nivalis (snow mould, foot rot of cereals), PDB microtiter plate, visual after 72 hrs; format: cell-based; settings: Monographella nivalis
Septoria tritici [2] = assay: Septoria tritici (leaf blotch), PDB microtiter plate, visual after 72 hrs; format: cell-based; settings: Zymoseptoria tritici, single compound, 0.0125 ppm
Botrytis cinerea = Botrytis cinerea (gray mould), PDB microtiter plate, visual after 72 hrs; format: cell-based; settings: alone
Septoria tritici [3] = assay: Septoria tritici (leaf blotch), YBG microtiter plate, photometric growth inhibition after 6 days; format: cell-based; settings: Zymoseptoria tritici, 144 h, solo
From the text: (§1) In the following Tables ‘Activity (%)’ means the assessed experimental activity (% disease control in this test when compared to untreated control leaf disks under the same conditions, which show extensive disease development) and “P” is the expected value calculated (expected) activity according to the COLBY formula (see above). The column headed ‘S?’ indicates whether or not synergy was observed, with ‘y’ meaning that synergy was observed.
Septoria tritici (Leaf Blotch):
After placing solutions of the test compounds (containing 0.2% DMSO) into a microtiter plate (96-well format), an equal amount of the nutrient broth (YBG) was added to each of the well. Finally the fungal spore solution was added. The test plates were incubated at 20° C. The inhibition of growth was determined photometrically after 6 days and the activity calculated in relation to untreated control.

[4] = test system: Fusarium graminearum and Fusarium culmorum; format: in vivo; settings: solo, wheat, 1 day preventive, 9 days after application
Sclerotinia sclerotiorum = Sclerotinia sclerotiorum on oilseed rape, preventive treatment; format: in vivo; settings: solo, 1 day preventive, 11 days after application
From the text: as §1
Sclerotinia sclerotiorum on Oilseed Rape, Preventive Treatment
The compound activity was tested under 1 day preventive conditions. Oilseed rape plants with 3 unfolded leafs were sprayed with a track sprayer and 200 I/ha spray volume with the test compounds, either solo or in tankmix as shown in the table below.
1 day after application the plants were infested with a solution of Sclerotinia sclerotiorum mycelium. The plants were placed under plastic hoods and high humidity conditions in a climate chamber at 14 h day/10 h night cycle and 15° C. Disease infestation was evaluated visually 11 days after application and average activity calculated in relation to disease severity on untreated check.

Gaeumannomvces graminis = Gaeumannomvces graminis (take-all of cereals), PDB microtiter plate, visual after 48 hrs; format: cell-based; settings: solo
From the text: In the following Tables ‘Activity (%)’ means the assessed experimental activity (% disease control in this test when compared to untreated control leaf disks under the same conditions, which show extensive disease development) and “P” is the expected value calculated (expected) activity according to the COLBY formula (see above). The column headed ‘S?’ indicates whether or not synergy was observed, with ‘y’ meaning that synergy was observed. Gaeumannomvces graminis (Take-all of Cereals) Mycelial fragments of the fungus from cryogenic storage were directly mixed into nutrient broth (PDB potato dextrose broth). After placing a (DMSO) solution of the test compounds into a microtiter plate (96-well format) the nutrient broth containing the fungal spores was added.

[5] = test system: Phakopsora pachyrhizi (triazole tolerant soybeanrust strain); assay: Phakopsora pachyrhizi on soybean, preventive treatment; format: in vivo; settings: solo, soybean leaf discs, 1 day preventive, 11 days after application
Sphaerotheca fuliginea = Sphaerotheca fuliginea (powdery mildew) on cucumber, preventive treatment; format: in vivo; settings: solo, 2 days preventive, 10 days after application
From the text: In the following Tables 'Activity (%)' means the assessed experimental activity (% disease control in this test when compared to untreated control leaf disks under the same conditions, which show extensive disease development) and “P” is the expected value calculated (expected) activity according to the COLBY formula (see above). The column headed 'S?' indicates whether or not synergy was observed, with 'y' meaning that synergy was observed. Sphaerotheca fuliqinea (Powdery Mildew) on Cucumber, Preventive Treatment […] Cucumber plants with unfolded cotyledons were sprayed with a roomsprayer and 40 ml/4 plants spray volume with the test compounds, either solo or in […] shown in the table below. 2 days after application the plants were infested with spores of Sphaerotheca fuliginea.

[6] = test system: Blumeria graminis f. sp. tritici (Erysiphe graminis f. sp. tritici); assay: Blumeria graminis f. sp. tritici / wheat / leaf disc preventative (powdery mildew on wheat); format: in vivo; settings: foliar, compared to untreated control leaf disks, read-out: disease control
Outline: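 Preventative leaf-disc test: compound (200 ppm) was sprayed onto cv. Kanzler wheat segments, which were dusted with conidia from infected plants 1 day after application. After incubation at 20° C and 60% rh, disease control relative to untreated segments was rated 6-8 days after application.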

Pyrenophora teres = Pyrenophora teres / barley / leaf disc preventative (net blotch); format: in vivo; settings: foliar, compared to untreated control leaf disks, read-out: disease control
From the text: Pyrenophora teres/Barley/Leaf Disc Preventative (Net Blotch) Barley leaf segments cv. Hasso were placed on agar in a multiwell plate (24-well format) and sprayed with the formulated test compound diluted in water. The leaf segments were inoculated with a spore suspension of the fungus 2 days after application.

[7] = test system: Puccinia recondita f. sp. tritici; assay: Puccinia recondita f. sp. tritici / wheat / leaf disc preventative (brown rust); format: in vivo; settings: foliar, compared to untreated control leaf disks, read-out: disease control
From the text: Puccinia recondita f. sp. tritici/Wheat/Leaf Disc Preventative (Brown Rust) Wheat leaf segments cv. Kanzler were placed on agar in multiwell plates (24-well format) and sprayed with the formulated test compound diluted in water. The leaf disks were inoculated with a spore suspension of the fungus 1 day after application.

[8] = test system: Puccinia recondita f. sp. tritici; assay: Puccinia recondita f. sp. tritici / wheat / leaf disc curative (brown rust); format: in vivo; settings: foliar, compared to untreated control leaf disks, read-out: disease control
Experimental: Puccinia recondita f. sp. tritici/Wheat/Leaf Disc Curative (Brown Rust) Wheat leaf segments cv. Kanzler are placed on agar in multiwell plates (24-well format). The leaf segments are inoculated with a spore suspension of the fungus. Plates were stored in darkness at 19° C. and 75% rh. The formulated test compound diluted in water was applied 1 day after inoculation.

Pythium ultimum = Pythium ultimum (damping off), PDB microtiter plate, visual after 48 hrs; format: cell-based; settings: solo, rate 0.03125 ppm
Septoria tritici [9] = assay: Septoria tritici on wheat, preventive treatment; format: in vivo; settings: solo, wheat Riband, 1 day preventive, 18 days after application

## OC(Cc1ccccc1Cl)(Cn1nc[nH]c1=S)C1(Cl)CC1 (stereo not drawn) [Prothioconazole]
[1]; applied alone, 0.0125 ppm
  inhibition at 0.0125 ppm: 0%
[1]; applied alone, rate 0.0015625 ppm
  inhibition at 0.0015625 ppm: 0%
[1]; applied alone, rate 0.003125 ppm
  inhibition at 0.003125 ppm: 0%
[1]; applied alone, rate 0.00625 ppm
  inhibition at 0.00625 ppm: 0%
[1]; applied alone, rate 0.0125 ppm
  inhibition at 0.0125 ppm: 0%
[1]; single compound, rate 0.0125 ppm
  inhibition at 0.0125 ppm: 0%
Septoria tritici [2]
  inhibition at 0.0125 ppm: 70%
Botrytis cinerea; Botrytis cinerea, rate 0.00625 ppm
  inhibition at 0.00625 ppm: 0%
Botrytis cinerea; Botrytis cinerea, rate 0.0125 ppm
  inhibition at 0.0125 ppm: 0%
Botrytis cinerea; Botrytis cinerea, rate 0.025 ppm
  inhibition at 0.025 ppm: 0%
Botrytis cinerea; Botrytis cinerea, rate 0.05 ppm
  inhibition at 0.05 ppm: 50%
Botrytis cinerea; rate 0.05 ppm
  Activity (%): 70%
Septoria tritici [3]; rate 0.01953125 ppm
  inhibition of growth at 0.0195312 ppm: 69%
Septoria tritici [3]; rate 0.03125 ppm, read-out: Activity
  inhibition of growth at 0.03125 ppm: 9%
Septoria tritici [3]; rate 0.0390625 ppm
  inhibition of growth at 0.0390625 ppm: 63%
Septoria tritici [3]; rate 0.0625 ppm
  inhibition of growth at 0.0625 ppm: 63%
[4]; 50 g a.i./ha
  Activity: 55%

## O=C(Nc1ccccc1-c1ccc(Cl)cc1)c1cccnc1Cl [Boscalid]
Sclerotinia sclerotiorum; rate 50 g a.i./ha
  Activity: 8%
Sclerotinia sclerotiorum; rate 100 g a.i./ha
  Activity: 25%

## Cn1cc(C(=O)Nc2cccc3c2C2CCC3C2=C(Cl)Cl)c(C(F)F)n1 (stereo not drawn) [(V), N-[9-(dichloromethylene)-1,2,3,4-tetrahydro-1,4-methanonaphthalen-5-yl]-3-(difluoromethyl)-1-methyl-1H-pyrazole-4-carboxamide, reference compound]
Gaeumannomvces graminis; rate 0.015625 ppm
  inhibition at 0.015625 ppm: 0%
Gaeumannomvces graminis; rate 0.03125 ppm
  inhibition at 0.03125 ppm: 20%
Gaeumannomvces graminis; rate 0.0625 ppm
  inhibition at 0.0625 ppm: 70%
[1]; applied alone, 0.03125 ppm
  inhibition at 0.03125 ppm: 0%
[1]; applied alone, 0.0625 ppm
  inhibition at 0.0625 ppm: 50%
[1]; applied alone, 0.125 ppm
  inhibition at 0.125 ppm: 70%
[1]; applied alone, rate 0.03125 ppm
  inhibition at 0.03125 ppm: 0%
[1]; applied alone, rate 0.0625 ppm
  inhibition at 0.0625 ppm: 50%
Botrytis cinerea; Botrytis cinerea, rate 0.015625 ppm
  inhibition at 0.015625 ppm: 20%
Botrytis cinerea; Botrytis cinerea, rate 0.03125 ppm, read-out: Activity (%)
  inhibition at 0.03125 ppm: 50%
Botrytis cinerea; Botrytis cinerea, rate 0.0625 ppm, read-out: Activity (%)
  inhibition at 0.0625 ppm: 70%
Botrytis cinerea; Botrytis cinerea, rate 0.125 ppm
  inhibition at 0.125 ppm: 70%

## CC(C1CC1)C(O)(Cn1cncn1)c1ccc(Cl)cc1 (stereo not drawn) [Cyproconazole]
Septoria tritici [3]; rate 0.25 ppm
  inhibition of growth at 0.25 ppm: 0%
Septoria tritici [3]; rate 0.5 ppm
  inhibition of growth at 0.5 ppm: 64%
Septoria tritici [3]; rate 1 ppm
  inhibition of growth at 1 ppm: 84%
Septoria tritici [3]; rate 1.25 ppm
  inhibition of growth at 1.25 ppm: 39%
Septoria tritici [3]; rate 2.5 ppm
  inhibition of growth at 2.5 ppm: 76%
[5]; rate 0.5 g ai/ha
  Activity: 38%
[5]; rate 2 g ai/ha
  Activity: 53%

## CSC(=O)c1cccc2nnsc12 [Acibenzolar-s-methyl]
Sphaerotheca fuliginea; rate 0.6 ppm
  Activity: 0%
Sphaerotheca fuliginea; rate 2 ppm
  Activity: 0%
Sphaerotheca fuliginea; rate 6 ppm
  Activity: 0%
Sphaerotheca fuliginea; rate 20 ppm
  Activity: 4%

## CCN(C)/C=N/c1cc(Br)c(OC2CC=CC2)nc1C [Q.063]
[6]
  pest or weed control at 200 ppm: ≥ 50%
[5]; rate 0.5 g ai/ha
  Activity: 0%
[5]; rate 2 g ai/ha
  Activity: 0%
Pyrenophora teres
  pest or weed control at 200 ppm: ≥ 50%
[7]
  pest or weed control at 200 ppm: ≥ 50%
[8]
  pest or weed control at 200 ppm: ≥ 50%

## COCC(=O)N(c1c(C)cccc1C)[C@H](C)C(=O)OC [Mefenoxam]
Pythium ultimum
  Activity (%): 50%

## CCN(C)/C=N/c1cc(Br)c(OCc2ccccc2C)nc1C [Q.151]
Septoria tritici [9]; 1 g a.i./ha
  Activity: 0%
Septoria tritici [9]; 3 g a.i./ha
  Activity: 0% and 4%
Septoria tritici [9]; 9 g a.i./ha
  Activity: 0%
Septoria tritici [9]; 81 g a.i./ha
  Activity: 43%
[6]
  pest or weed control at 200 ppm: ≥ 50%
[4]; 200 g a.i./ha
  Activity: 3%
[7]
  pest or weed control at 200 ppm: ≥ 50%
[8]
  pest or weed control at 200 ppm: ≥ 50%

## CCN(C)/C=N/c1cc(Br)c(OCc2cccc(F)c2C)nc1C [Q.322]
other
  melting point: 67 to 68 °C
[6]
  pest or weed control at 200 ppm: ≥ 50%
Pyrenophora teres
  pest or weed control at 200 ppm: ≥ 50%
[7]
  pest or weed control at 200 ppm: ≥ 50%
[8]
  pest or weed control at 200 ppm: ≥ 50%

## CCN(C)/C=N/c1cc(Br)c(OCc2cccc(C)c2)nc1C [Q.128]
other
  melting point: 60 to 62 °C
[6]
  pest or weed control at 200 ppm: ≥ 50%
Pyrenophora teres
  pest or weed control at 200 ppm: ≥ 50%
[7]
  pest or weed control at 200 ppm: ≥ 50%
[8]
  pest or weed control at 200 ppm: ≥ 50%

## CCN(C)/C=N/c1cc(Br)c(OCc2ccccc2F)nc1C [Q.298]
other
  melting point: 57 to 61 °C
[6]
  pest or weed control at 200 ppm: ≥ 50%
Pyrenophora teres
  pest or weed control at 200 ppm: ≥ 50%
[7]
  pest or weed control at 200 ppm: ≥ 50%
[8]
  pest or weed control at 200 ppm: ≥ 50%
